Experimental data as given in patent publication US20070179060A1, “6-(Poly-substituted aryl)-4-aminopicolinates and their use as herbicides” (priority 2006, published 2007).

Columns and labels:
[1] = tested on: lambsquarter (Chenopodium album); assay: Postemergence herbicidal activity; type: in vivo; conditions: post-emergent, 140 g ai/ha, after 14 days; for pest or weed control at 140 g/ha: Chenopodium album, post-emergence, 336 h, read-out: % Control CHEAL
Method: (§1) Seeds or nutlets of the desired test plant species were planted in Sun Gro MetroMix® 306 planting mixture, which typically has a pH of 6.0 to 6.8 and an organic matter content of about 30 percent, in plastic pots with a surface area of 64 square centimeters. When required to ensure good germination and healthy plants, a fungicide treatment and/or other chemical or physical treatment was applied. The plants were grown for 7-21 days in a greenhouse with an approximate 15 hour photoperiod which was maintained at about 23-29° C. during the day and 22-28° C. during the night. Nutrients and water were added on a regular basis and supplemental lighting was provided with overhead metal halide 1000-Watt lamps as necessary. The plants were employed for testing when they reached the first or second true leaf stage. […] The concentrated stock solutions obtained were diluted with 20 mL of an aqueous mixture containing acetone, water, isopropyl alcohol, DMSO, Atplus 411F crop oil concentrate, and Triton® X-155 surfactant in a 48.5:39:10:1.5:1.0:0.02 v/v ratio to obtain spray solutions containing the highest application rates. […] Compound requirements are based upon a 12 mL application volume at a rate of 187 L/ha. Formulated compounds were applied to the plant material with an overhead Mandel track sprayer equipped with a […] nozzles calibrated to deliver 187 L/ha over an application area of 0.503 square meters at a spray height of 18 inches (43 cm) above the average plant canopy height. Control plants were sprayed in the same manner with the solvent blank. The treated plants and control plants were placed in a greenhouse as described above and watered by sub-irrigation to prevent wash-off of the test compounds. […] By applying the well-accepted probit analysis as described by J. Berkson in Journal of the American Statistical […], 48, 565 (1953) and by D.

[2] = tested on: redroot pigweed (Amaranthus retroflexus); assay: Postemergence herbicidal activity; type: in vivo; conditions: post-emergent, 140 g ai/ha, after 14 days; for pest or weed control at 140 g/ha: Amaranthus retroflexus, post-emergence, 336 h, read-out: % Control AMARE
Method: as §1

[3] = tested on: velvetleaf (Abutilon theophrasti); assay: Postemergence herbicidal activity; type: in vivo; conditions: post-emergent, 140 g ai/ha, after 14 days; for pest or weed control at 140 g/ha: Abutilon theophrasti, post-emergence, 336 h, read-out: % Control ABUTH
Method: as §1

| Compound | pest or weed control at 140 g/ha [1] | pest or weed control at 140 g/ha [2] | pest or weed control at 140 g/ha [3] | melting point | further results |
| --- | --- | --- | --- | --- | --- |
| COC(=O)c1nc(-c2ccc(Cl)c(C#N)c2F)cc(N)c1Cl [Compound 2, 4-Amino-3-chloro-6-(4-chloro-3-cyano-2-fluorophenyl)pyridine-2-carboxylic acid methyl ester] | 80% | 90% | 85% | 189 to 190 °C |  |
| COC(=O)c1nc(-c2ccc(Cl)c(OCC(F)F)c2F)cc(N)c1Cl [Compound 8, 4-Amino-3-chloro-6-[4-chloro-2-fluoro-3-(2,2-difluoroethoxy)phenyl]pyridine-2-carboxylic acid methyl ester] | 95% | 100% | 80% | 134 to 136 °C |  |
| CCOc1cc(-c2cc(N)c(Cl)c(C(=O)OC)n2)c(F)cc1Cl [Compound 9, 4-Amino-3-chloro-6-(4-chloro-2-fluoro-5-ethoxyphenyl)pyridine-2-carboxylic acid methyl ester] | 100% | 100% | 85% | 115 to 116 °C |  |
| COCCOc1c(Cl)ccc(-c2cc(N)c(Cl)c(C(=O)OC)n2)c1F [Compound 11, 4-Amino-3-chloro-6-[4-chloro-2-fluoro-3-(methoxyethoxy)phenyl]pyridine-2-carboxylic acid methyl ester] | 80% | 95% | 90% | 89 to 90 °C |  |
| COC(=O)c1nc(-c2cc(OC)c(Cl)cc2F)cc(NC(C)=O)c1Cl [Compound 18, 4-acetylamino-3-chloro-6-(4-chloro-2-fluoro-5-methoxy-phenyl)pyridine-2-carboxylic acid methyl ester] |  |  |  | 180 to 182 °C |  |
| COC(=O)c1nc(-c2ccc(Cl)c(C)c2F)cc(NC(C)=O)c1Cl [Compound 19, 4-Acetylamino-3-chloro-6-(4-chloro-2-fluoro-3-methylphenyl)pyridine-2-carboxylic acid methyl ester] |  |  |  | 151 to 152 °C |  |
| COC(=O)c1nc(-c2ccc(Cl)c(OC)c2F)cc(NC(C)=O)c1Cl [Compound 20, 4-Acetylamino-3-chloro-6-(4-chloro-2-fluoro-3-methoxyphenyl)pyridine-2-carboxylic acid methyl ester] |  |  |  | 159 to 160 °C |  |
| COC(=O)c1nc(-c2ccc(F)c(C)c2F)cc(NC(C)=O)c1Cl [Compound 23, 4-acetylamino-3-chloro-6-(2,4-difluoro-3-methylphenyl)-pyridine-2-carboxylic acid methyl ester] |  |  |  | 152 to 153 °C |  |
| COC(=O)c1nc(-c2ccc(Cl)c(C)c2Cl)cc(NC(C)=O)c1Cl [Compound 24, 4-Acetylamino-3-chloro-6-(2,4-dichloro-3-methylphenyl)pyridine-2-carboxylic acid methyl ester] |  |  |  | 172 to 174 °C |  |
| COC(=O)c1nc(-c2ccc(Cl)c(C(F)F)c2Cl)cc(NC(C)=O)c1Cl [Compound 30, 4-Acetylamino-3-chloro-6-[2,4-dichloro-3-(difluoromethyl)phenyl]pyridine-2-carboxylic acid, methyl ester] | 95% | 90% | 100% | 152 to 153 °C |  |
| COCOc1c(Cl)ccc(-c2cc(NC(C)=O)c(Cl)c(C(=O)OC)n2)c1F [Compound 34, 4-Acetylamino-3-chloro-6-(4-chloro-2-fluoro-3-methoxymethoxy-phenyl)pyridine-2-carboxylic acid, methyl ester] |  |  |  | 122 to 123 °C |  |
| CCCCOc1c(Cl)ccc(-c2cc(N)c(Cl)c(C(=O)OC)n2)c1F [Compound 60, 4-Amino-3-chloro-6-(4-chloro-3-butoxy-2-fluorophenyl)pyridine-2-carboxylic acid, methyl ester] | 90% | 90% | 55% |  |  |
| CCC(F)c1c(Cl)ccc(-c2cc(N)c(Cl)c(C(=O)OC)n2)c1F (stereo not shown) [Compound 66, 4-Amino-3-chloro-6-[4-chloro-2-fluoro-3-(1-fluoropropyl)phenyl]pyridine-2-carboxylic acid, methyl ester] |  |  |  |  | % Control CHEAL [1]: 95%; % Control AMARE [2]: 100%; % Control ABUTH [3]: 90% |
| COC(=O)c1nc(-c2ccc(CF)c(OC)c2F)cc(N)c1Cl [Compound 72, 4-Amino-3-chloro-6-(2-fluoro-4-fluoromethyl-3-methoxyphenyl)pyridine-2-carboxylic acid, methyl ester] | 80% | 20% | 100% |  |  |
| COC(=O)c1nc(-c2c(F)cc(Cl)c(C)c2F)cc(N)c1Cl [Compound 75, 4-Amino-3-chloro-6-(4-chloro-2,6-difluoro-3-methylphenyl)pyridine-2-carboxylic acid, methyl ester] | 95% | 95% | 100% |  |  |
| COC(=O)c1nc(-c2ccc(Cl)c(OC)c2Br)cc(N)c1Cl [Compound 76, 4-Amino-6-(2-bromo-4-chloro-3-methoxyphenyl)-3-chloropyridine-2-carboxylic acid, methyl ester] | 100% | 100% | 100% |  |  |
| COC(=O)c1nc(-c2c(F)cc(F)c(C(F)F)c2F)cc(N)c1Cl [Compound 78, 4-Amino-3-chloro-6-(3-difluoromethyl-2,4,6-trifluorophenyl)pyridine-2-carboxylic acid, methyl ester] | 100% | 100% | 90% |  |  |
| COC(=O)c1nc(-c2ccc(Cl)c([S+](C)[O-])c2F)cc(N)c1Cl (stereo not shown) [Compound 83, 4-amino-3-chloro-6-(4-chloro-2-fluoro-3-methanesulfinyl-phenyl)pyridine-2-carboxylic acid methyl ester] | 85% | 85% | 90% |  |  |
| COC(=O)c1nc(-c2ccc(Cl)c(S(C)(=O)=O)c2F)cc(N)c1Cl [Compound 84, 4-amino-3-chloro-6-(4-chloro-2-fluoro-3-methanesulfonylphenyl)pyridine-2-carboxylic acid methyl ester] | 70% | 75% | 80% |  |  |
| COC(=O)c1nc(-c2sc(F)c(CF)c2Cl)cc(N)c1Cl [Compound 85, 4-amino-3-chloro-6-(4-chloro-2-fluoro-3-fluoromethylthiophenyl)pyridine-2-carboxylic acid methyl ester] |  |  |  | 104 to 105 °C |  |
| Cc1c(F)ccc(-c2cc(N)c(Cl)c(C(=O)O)n2)c1F [Compound 97, 4-Amino-3-chloro-(2,4-difluoro-3-methylphenyl)pyridine-2-carboxylic acid] |  |  |  |  | % Control CHEAL [1]: 80%; % Control AMARE [2]: 85%; % Control ABUTH [3]: 65% |
| CCOc1cc(-c2cc(N)c(Cl)c(C(=O)O)n2)c(F)cc1Cl [Compound 109, 4-Amino-3-chloro-6-(4-chloro-2-fluoro-5-ethoxyphenyl)pyridine-2-carboxylic acid] |  |  |  | 178 to 179 °C (dec.) |  |
| Nc1cc(-c2ccc(Cl)c(CF)c2F)nc(C(=O)O)c1Cl [Compound 114, 4-Amino-3-chloro-6-(4-chloro-2-fluoro-3-fluoromethylphenyl)pyridine-2-carboxylic acid] | 95% | 85% | 95% |  |  |
| CCCCOc1c(Cl)ccc(-c2cc(N)c(Cl)c(C(=O)O)n2)c1F [Compound 124, 4-Amino-3-chloro-6-(4-chloro-3-butoxy-2-fluorophenyl)pyridine-2-carboxylic acid] |  |  |  | 157 to 158 °C (dec.) |  |
| CC(C)(F)c1c(Cl)ccc(-c2cc(N)c(Cl)c(C(=O)O)n2)c1Cl [Compound 127] |  |  |  |  | % Control CHEAL [1]: 100%; % Control AMARE [2]: 100%; % Control ABUTH [3]: 90% |
| CCc1c(Cl)ccc(-c2cc(N)c(Cl)c(C(=O)O)n2)c1F [Compound 128, 4-Amino-3-chloro-6-(4-chloro-3-ethyl-2-fluorophenyl)pyridine-2-carboxylic acid] |  |  |  | 192 to 193 °C (dec.) |  |
| COCOc1c(Cl)ccc(-c2cc(N)c(Cl)c(C(=O)O)n2)c1F [Compound 132, 4-Amino-3-chloro-6-(4-chloro-2-fluoro-3-methoxymethoxyphenyl)pyridine-2-carboxylic acid] |  |  |  | 159 °C (dec.) |  |
